From the supplement of paper PMC11208160

Experiment: recombinant barcode read abundance after kanamycin selection (control-corrected) (log10(CPM+1)); higher = more efficient recombination; sequences stand for … in AGTGCAGAGAAAATCGGCCAGTTTTCTCTGCCTGCAGTCCGCATGCCGT…AGATTTATGCAGCGGACTGCCTTTCTCCCAAAGTGATAAACCGGACAGTATCATGGACCGGTTTTCCCGGTAATCCGTATTTGCAAGGTTGGTTTCACT; site = the 11-nt target
Description: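 Pooled E. coli target-specificity screen for the IS621 bridge recombinase. Each library plasmid pairs an 11-nt target (CT core) with a bridge RNA whose target-binding loop (9-nt LTG + 4-nt RTG) is reprogrammed; the rest of the 177-nt WT IS621 bridge RNA scaffold is fixed. The plasmid is co-electroporated with a WT donor plasmid; recombinase is induced with 0.1 mM IPTG and recombinants are selected on kanamycin. Recombinant barcodes are sequenced, converted to CPM, averaged over two biological replicates and corrected by the unselected control CPM. Molecule = full bridge RNA written as DNA: LTG = specificity nt 1-9, RTG = reverse complement of specificity nt 8-11, in the WT scaffold.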
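Also: IS621 recombinase and bridge RNA in Escherichia coli cells.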

Sequence | recombinant barcode read abundance (log10)
AATAGGCCTTGGGTTCTAACCTGTTGCGT (site AATCGGCCTAC) | 0.163
AATAGGCCTTGGGTTCTAACCTGTTGCGT (site AATGGGCCTAC) | 0.23
AATAGGCCTTGGGTTCTAACCTGTTGCGT (site AATTGGCCTAC) | 0.0726
AATCGCACTTGGGTTCTAACCTGTTGCCT (site AATACCACTAG) | 0
AATCGCACTTGGGTTCTAACCTGTTGCCT (site AATCGCACTAG) | 0.216
AATGCTCCTTGGGTTCTAACCTGTTGCAT (site AATGCTCCTAA) | 0.0259
AATGCTCCTTGGGTTCTAACCTGTTGCAT (site AATGCTCCTAC) | 0.532
AATGCTCCTTGGGTTCTAACCTGTTGCAT (site AATGCTCCTAG) | 0.248
AATGCTCCTTGGGTTCTAACCTGTTGCAT (site AATGCTCCTAT) | 0.533
AATGCTCCTTGGGTTCTAACCTGTTGCCT (site AATGCTCCTAA) | 0.0483
AATGCTCCTTGGGTTCTAACCTGTTGCCT (site AATGCTCCTAC) | 0.158
AATGCTCCTTGGGTTCTAACCTGTTGCCT (site AATGCTCCTAG) | 0.561
AATGCTCCTTGGGTTCTAACCTGTTGCCT (site AATGCTCCTAT) | 0.0129
AATGGGCCTTGGGTTCTAACCTGTTGCGT (site AATAGGCCTAC) | 1.71
AATGGGCCTTGGGTTCTAACCTGTTGCGT (site AATCGGCCTAC) | 0.048
AATGGGCCTTGGGTTCTAACCTGTTGCGT (site AATGGGCCTAC) | 2.4
AATGGGCCTTGGGTTCTAACCTGTTGCGT (site AATTGGCCTAC) | 0.765
AATGGGGCTTGGGTTCTAACCTGTTGCAG (site AATGGGGCTCT) | 2.51
AATGGGGCTTGGGTTCTAACCTGTTGCAG (site CGGCCACCTAA) | 0.185
AATGGGTCTTGGGTTCTAACCTGTTGCTT (site AATGGGTCTAA) | 1.71
AATGGGTCTTGGGTTCTAACCTGTTGCTT (site CCACTAGCTCT) | 0.0323
AATTGGCCTTGGGTTCTAACCTGTTGCGT (site AATAGGCCTAC) | 0.425

Sequence | recombinant barcode read abundance (log10)
AATTGGCCTTGGGTTCTAACCTGTTGCGT (site AATCGGCCTAC) | 0.976
AATTGGCCTTGGGTTCTAACCTGTTGCGT (site AATGGGCCTAC) | 0.376
AATTGGCCTTGGGTTCTAACCTGTTGCGT (site AATTGGCCTAC) | 0.673
ACAAACCCTTGGGTTCTAACCTGTTGCCT (site ACAAAACCTAG) | 0.214
ACAAACCCTTGGGTTCTAACCTGTTGCCT (site ACAAACCCTAG) | 0.812
ACAAACCCTTGGGTTCTAACCTGTTGCCT (site ACAAAGCCTAG) | 0.159
ACAAACCCTTGGGTTCTAACCTGTTGCCT (site ACAAATCCTAG) | 0.0456
ACAAAGCCTTGGGTTCTAACCTGTTGCCT (site ACAAAACCTAG) | 0.49
ACAAAGCCTTGGGTTCTAACCTGTTGCCT (site ACAAACCCTAG) | 0.0556
ACAAAGCCTTGGGTTCTAACCTGTTGCCT (site ACAAAGCCTAG) | 0.85
ACAAAGCCTTGGGTTCTAACCTGTTGCCT (site ACAAATCCTAG) | 0.0552
ACAAATACTTGGGTTCTAACCTGTTGCGG (site ACAAATACTCC) | 0.905
ACAAATACTTGGGTTCTAACCTGTTGCGG (site CGTTCACCTAT) | 0.11
ACAAGCCCTTGGGTTCTAACCTGTTGCCT (site AAAAGCCCTAG) | 0.189
ACAAGCCCTTGGGTTCTAACCTGTTGCCT (site ACAAGCCCTAG) | 0.643
ACAAGCCCTTGGGTTCTAACCTGTTGCCT (site AGAAGCCCTAG) | 0.0546
ACAAGCCCTTGGGTTCTAACCTGTTGCCT (site ATAAGCCCTAG) | 0.0711
ACAAGGCCTTGGGTTCTAACCTGTTGCCT (site ACAAGGCCTAG) | 0.16
ACAAGGCCTTGGGTTCTAACCTGTTGCCT (site CCAAGGCCTAG) | 0.784
ACAAGGCCTTGGGTTCTAACCTGTTGCCT (site GCAAGGCCTAG) | 0.126
ACAAGGCCTTGGGTTCTAACCTGTTGCCT (site TCAAGGCCTAG) | 0.0644
ACAATAGCTTGGGTTCTAACCTGTTGCCT (site ACAATACCTCG) | 0.0732

Sequence | recombinant barcode read abundance (log10)
ACAATAGCTTGGGTTCTAACCTGTTGCCT (site ACAATAGCTAG) | 1.64
ACACAGACTTGGGTTCTAACCTGTTGCGC (site ACAAAGACTGC) | 0.174
ACACAGACTTGGGTTCTAACCTGTTGCGC (site ACACAGACTGC) | 1.08
ACACAGACTTGGGTTCTAACCTGTTGCGC (site ACAGAGACTGC) | 0.114
ACACAGACTTGGGTTCTAACCTGTTGCGC (site ACATAGACTGC) | 0.00702
ACACCCTCTTGGGTTCTAACCTGTTGCTT (site ACACCCTCTAA) | 2.5
ACACCCTCTTGGGTTCTAACCTGTTGCTT (site CGACCCTCTAA) | 0.208
ACAGAATCTTGGGTTCTAACCTGTTGCCT (site ACAGAATCTAG) | 1.69
ACAGAATCTTGGGTTCTAACCTGTTGCCT (site ACAGGATCTAA) | 0.0318
ACAGACGCTTGGGTTCTAACCTGTTGCCT (site ACAGACGCTAG) | 0.721
ACAGACGCTTGGGTTCTAACCTGTTGCCT (site ACAGCCGCTAG) | 0.151
ACAGACGCTTGGGTTCTAACCTGTTGCCT (site ACAGGCGCTAG) | 0.163
ACAGACGCTTGGGTTCTAACCTGTTGCCT (site ACAGTCGCTAG) | 0.0906
ACAGAGACTTGGGTTCTAACCTGTTGCTA (site ACAGAGACTGT) | 0.121
ACAGAGACTTGGGTTCTAACCTGTTGCTA (site ACAGAGACTTA) | 1.35
ACAGTAGCTTGGGTTCTAACCTGTTGCGG (site ACAGTAGCTCC) | 1.81
ACAGTAGCTTGGGTTCTAACCTGTTGCGG (site ACAGTAGCTCG) | 0.248
ACAGTGACTTGGGTTCTAACCTGTTGCCT (site ACAATGACTAG) | 1.23
ACAGTGACTTGGGTTCTAACCTGTTGCCT (site ACAGTGACTAG) | 2.49
ACAGTGGCTTGGGTTCTAACCTGTTGCGG (site ACAGTGGCTCC) | 1.53
ACAGTGGCTTGGGTTCTAACCTGTTGCGG (site CTTCGCCCTAA) | 0.0955
ACAGTGTCTTGGGTTCTAACCTGTTGCGG (site ACAATGTCTCC) | 1.37
